Where a name gives a salt, the structure may show the parent alone.
Columns and labels:
Format in all cases: cell-based
hOX1R [1] = molecular target: T1, hOX1R (Homo sapiens, UniProt O43613); test: Intracellular calcium measurements using division-arrested cells, OX1; conditions: agonist orexin A at 2×EC50, * = single experiment, otherwise average of at least two, read-out: pIC50 OX1 (converted)
T1 sequence (O43613 1-425): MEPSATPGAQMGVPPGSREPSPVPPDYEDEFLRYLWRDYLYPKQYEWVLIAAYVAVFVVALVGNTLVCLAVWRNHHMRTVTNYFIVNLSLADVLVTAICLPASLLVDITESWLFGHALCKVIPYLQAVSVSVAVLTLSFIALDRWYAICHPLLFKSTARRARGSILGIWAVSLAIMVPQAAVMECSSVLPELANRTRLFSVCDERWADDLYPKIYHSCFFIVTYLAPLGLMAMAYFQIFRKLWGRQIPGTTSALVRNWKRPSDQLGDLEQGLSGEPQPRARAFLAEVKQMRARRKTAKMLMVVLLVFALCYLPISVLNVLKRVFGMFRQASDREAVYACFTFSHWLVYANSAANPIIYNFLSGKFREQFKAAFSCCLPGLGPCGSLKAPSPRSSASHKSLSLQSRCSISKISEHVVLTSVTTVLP
Protocol: (§1) Intracellular Calcium Measurements Using Division-arrested Cells (Table 1):
(§2) Test compounds are prepared as 10 mM stock solutions in DMSO, then serially diluted in half log concentrations with DMSO followed by dilution with assay buffer (HBSS (Sigma-Aldrich, H8264) containing 20 mM HEPES (Sigma-Aldrich, H4034), 0.1% (w/v) bovine serum albumin and adjusted to pH 7.4) to a top final assay concentration of 10 μM.
(§3) Human OX1 (CT-A474) and human OX2 (CT-A475) receptor-expressing division-arrested cells are plated into 384 well black, clear bottom, cell-bind plates at a seeding density of 10,000 cells/50 μL growth media. The seeded plates are incubated at 37° C. in air supplemented with 5% CO2 for 16 hrs.
(§4) The media is removed and replaced with 30 μL/well of cell loading buffer (a vial of Calcium 5 is solubilized in 22 mL of assay buffer to which a freshly prepared 250 mM solution of probenecid in 1:1 1M NaOH to assay buffer (200 μL) is added) and the cells incubated for 1 hr at 37° C. The serially diluted test compounds (10 μL/well) are added to the plate, which is then incubated for 10 mins and placed in a FlexStation III reader.

hOX2R [2] = molecular target: T2, hOX2R (Homo sapiens, UniProt O43614); test: Intracellular calcium measurements using division-arrested cells, OX2; conditions: agonist orexin B at 2×EC50, * = single experiment, otherwise average of at least two, read-out: pIC50 OX2 (converted)
T2 sequence (O43614 1-444): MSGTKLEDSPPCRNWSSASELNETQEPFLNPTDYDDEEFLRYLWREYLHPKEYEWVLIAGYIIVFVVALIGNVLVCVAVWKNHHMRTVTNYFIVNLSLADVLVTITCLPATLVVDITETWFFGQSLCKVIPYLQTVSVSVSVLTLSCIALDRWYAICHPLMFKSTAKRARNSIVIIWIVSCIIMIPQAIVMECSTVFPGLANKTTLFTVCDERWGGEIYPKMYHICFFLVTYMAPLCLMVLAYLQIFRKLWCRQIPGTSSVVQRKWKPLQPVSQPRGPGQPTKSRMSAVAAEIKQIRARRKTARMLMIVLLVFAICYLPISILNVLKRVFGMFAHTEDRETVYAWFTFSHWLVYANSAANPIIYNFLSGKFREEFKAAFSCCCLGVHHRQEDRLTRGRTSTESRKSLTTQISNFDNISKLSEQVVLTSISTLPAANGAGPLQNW
Protocol: as §1, §2, §3, §4

hOX2R [3] = molecular target: T2, hOX2R; test: Intracellular calcium measurements using stable-replicating cells, Method B (CHO cells, FLIPR Tetra), OX2; conditions: orexin A at EC75, read-out: pIC50 OX2 (converted)
Protocol: (§5) Intracellular Calcium Measurements Using Stable-replicating Cells:
(§6) Human OX1 or human OX2 receptor expressing CHO cells are plated into 384 well black, clear bottom, CellBIND plates at a seeding density of 10,000 cells/75 μL growth media. The seeded plates are incubated at 37° C. in air supplemented with 5% CO2 overnight.
(§7) The next day media is removed and replaced with 30 μL/well of cell loading buffer (a vial of Calcium 5 is solubilized in 20 mL of assay buffer) and the cells incubated for 1 hr at 37° C. The serially diluted test compounds (10 μL/well) are added to the cell plate by the FLIPR Tetra and the addition is monitored for 5 mins by the instrument. The cell plate is then removed and incubated for additional 25 mins in a humidified incubator at […] prior to being placed back into the FLIPR Tetra. Finally 10 μL of orexin A in assay buffer +0.1% (w/v) bovine serum albumin is dispensed by the FLIPR Tetra at an EC75 concentration determined for each assay run. Fluorescence is measured at excitation and emission wavelengths of 485 nm and 525 nm respectively and data analyzed using GraphPad Prism for the EC75 value of orexin A and Aplus to determine an IC50 value for each test compound.

hOX1R [4] = molecular target: T1, hOX1R; test: Intracellular calcium measurements using stable-replicating cells, Method B (CHO cells, FLIPR Tetra), OX1; conditions: orexin A at EC75, read-out: pIC50 OX1 (converted)
Protocol: as §5, §6, §7

SMILES	IC50 (hOX1R [1]) [nM]	IC50 (hOX2R [2]) [nM]	IC50 (hOX2R [3]) [nM]	IC50 (hOX1R [4]) [nM]
CC[C@@H](CNc1ccc(C(F)(F)F)nc1)N(C)C(=O)c1cc(Cl)ccc1-n1nccn1 [Example 54, (S)-5-chloro-N-methyl-2-(2H-1,2,3-triazol-2-yl)-N-(1-((6-(trifluoromethyl)pyridin-3-yl)amino)butan-2-yl)benzamide]	20	1260		
CC(C)[C@@H](CNC(=O)c1ccc(F)cc1)N(C)C(=O)c1ccccc1-c1ccccc1 [Example 56, (S)—N-(1-(4-fluorobenzamido)-3-methylbutan-2-yl)-N-methyl-[1,1′-biphenyl]-2-carboxamide]	126	> 3160		
CC(C)[C@@H](CNC(=O)Nc1ccccc1)N(C)C(=O)c1ccccc1-c1ccccc1 [Example 58, (S)—N-methyl-N-(3-methyl-1-(3-phenylureido)butan-2-yl)-[1,1′-biphenyl]-2-carboxamide]	126	> 5010		
CC(C)[C@@H](CNc1ccc(Cl)cc1)N(C)C(=O)c1ccccc1-c1ccccc1 [Example 59, (S)—N-(1-((4-chlorophenyl)amino)-3-methylbutan-2-yl)-N-methyl-[1,1′-biphenyl]-2-carboxamide]	158	> 6310		
CC[C@@H](CNc1cnc2ccccc2n1)N(C)C(=O)c1nc(C)ccc1-n1nccn1 [Example 65, (S)—N,6-dimethyl-N-(1-(quinoxalin-2-ylamino)butan-2-yl)-3-(2H-1,2,3-triazol-2-yl)picolinamide]			794	2
Cc1ccc(-n2nccn2)c(C(=O)N(C)[C@H](CNc2ncc(C(F)(F)F)cn2)C(C)C)n1 [Example 66, (S)—N,6-dimethyl-N-(3-methyl-1-((5-(trifluoromethyl)pyrimidin-2-yl)amino)butan-2-yl)-3-(2H-1,2,3-triazol-2-yl)picolinamide]			> 631	12.6
Cc1ccc(-n2nccn2)c(C(=O)N(C)[C@H](CNc2cnc(C(F)(F)F)cn2)C(C)C)n1 [Example 67, (S)—N,6-dimethyl-N-(3-methyl-1-((5-(trifluoromethyl)pyrazin-2-yl)amino)butan-2-yl)-3-(2H-1,2,3-triazol-2-yl)picolinamide]				7.94
Cc1ccc(-n2nccn2)c(C(=O)N(C)[C@H](CNc2ncc3ccccc3n2)C(C)C)n1 [Example 68, (S)—N,6-dimethyl-N-(3-methyl-1-(quinazolin-2-ylamino)butan-2-yl)-3-(2H-1,2,3-triazol-2-yl)picolinamide]			> 1000	15.8
Cc1ccc(-n2nccn2)c(C(=O)N(C)[C@H](CNc2ccc(C(F)(F)F)cn2)C(C)C)n1 [Example 69, (S)—N,6-dimethyl-N-(3-methyl-1-((5-(trifluoromethyl)pyridin-2-yl)amino)butan-2-yl)-3-(2H-1,2,3-triazol-2-yl)picolinamide]			3160	3.16
CC[C@@H](CNc1cnc(C(F)(F)F)cn1)N(CC)C(=O)c1nc(C)ccc1-n1nccn1 [Example 70, (S)—N-ethyl-6-methyl-3-(2H-1,2,3-triazol-2-yl)-N-(1-((5-(trifluoromethyl)pyrazin-2-yl)amino)butan-2-yl)picolinamide]				1.58
CC[C@@H](CNc1ccc(C(F)(F)F)cn1)N(CC)C(=O)c1nc(C)ccc1-n1nccn1 [Example 71, (S)—N-ethyl-6-methyl-3-(2H-1,2,3-triazol-2-yl)-N-(1-((5-(trifluoromethyl)pyridin-2-yl)amino)butan-2-yl)picolinamide]			316	1
CC[C@@H](CNc1ncc2ccccc2n1)N(CC)C(=O)c1nc(C)ccc1-n1nccn1 [Example 72, (S)—N-ethyl-6-methyl-N-(1-(quinazolin-2-ylamino)butan-2-yl)-3-(2H-1,2,3-triazol-2-yl)picolinamide]				1.58
CC[C@@H](CNc1ncc(C(F)(F)F)cn1)N(CC)C(=O)c1nc(C)ccc1-n1nccn1 [Example 73, (S)—N-ethyl-6-methyl-3-(2H-1,2,3-triazol-2-yl)-N-(1-((5-(trifluoromethyl)pyrimidin-2-yl)amino)butan-2-yl)picolinamide]			> 1000	
Cc1ccc(-n2nccn2)c(C(=O)N(C)[C@H](CNc2ncc(C(F)(F)F)cn2)C2CC2)n1 [Example 74, (S)—N-(1-cyclopropyl-2-((5-(trifluoromethyl)pyrimidin-2-yl)amino)ethyl)-N,6-dimethyl-3-(2H-1,2,3-triazol-2-yl)picolinamide]			> 10000	2000

Other lines, results leading:

IC50 (hOX1R [1]) [nM]	IC50 (hOX2R [2]) [nM]	IC50 (hOX2R [3]) [nM]	IC50 (hOX1R [4]) [nM]	SMILES
		> 2000	25.1	CC[C@@H](CNc1ccc2ncccc2n1)N(C)C(=O)c1nc(C)ccc1-n1nccn1 [Example 76, (S)—N-(1-((1,5-naphthyridin-2-yl)amino)butan-2-yl)-N,6-dimethyl-3-(2H-1,2,3-triazol-2-yl)picolinamide]
		> 10000	7.94	CC[C@@H](CN(C)c1ncc(C(F)(F)F)cn1)N(C)C(=O)c1nc(C)ccc1-n1nccn1 [Example 82, (S)—N,6-dimethyl-N-(1-(methyl(5-(trifluoromethyl)pyrimidin-2-yl)amino)butan-2-yl)-3-(2H-1,2,3-triazol-2-yl)picolinamide]
		> 1000	12.6	CC[C@@H](CN(CCOC)c1ncc(C(F)(F)F)cn1)N(C)C(=O)c1nc(C)ccc1-n1nccn1 [Example 83, (S)—N-(1-((2-methoxyethyl)(5-(trifluoromethyl)pyrimidin-2-yl)amino)butan-2-yl)-N,6-dimethyl-3-(2H-1,2,3-triazol-2-yl)picolinamide]
			2	CC[C@@H](CNc1ncc(C(F)(F)F)cn1)N(C)C(=O)c1nc(C)ccc1-c1ncccn1 [Example 84, (S)—N,6-dimethyl-3-(pyrimidin-2-yl)-N-(1-((5-(trifluoromethyl)pyrimidin-2-yl)amino)butan-2-yl)picolinamide formic acid salt]
			3.98	CC[C@@H](CNc1ccc(Cl)cn1)N(C)C(=O)c1cc(OC)c(C)cc1-n1nccn1 [Example 87, (S)—N-(1-((5-chloropyridin-2-yl)amino)butan-2-yl)-5-methoxy-N,4-dimethyl-2-(2H-1,2,3-triazol-2-yl)benzamide]
		> 10000	2000	CC[C@@H](CNc1ncc(C(F)(F)F)cn1)N(C)C(=O)c1nc(C)ccc1-n1cncn1 [Example 89, (S)—N,6-dimethyl-3-(1H-1,2,4-triazol-1-yl)-N-(1-((5-(trifluoromethyl)pyrimidin-2-yl)amino)butan-2-yl)picolinamide formic acid salt]
			31.6	CC[C@@H](CNc1ncc(C(F)(F)F)cn1)N(C)C(=O)c1nc(OC)ccc1-n1nccn1 [Example 92, (S)-6-methoxy-N-methyl-3-(2H-1,2,3-triazol-2-yl)-N-(1-((5-(trifluoromethyl)pyrimidin-2-yl)amino)butan-2-yl)picolinamide]
